Read-outs that look alike come from different tables or passages of the source. Values belong to the compound of their own block, whether it stands above or below them. Starred links: 1 amine or outer side, 2 acyl side, 3 side chain; linkers in the order of their positions; H or OH if unused. Positions of bridges follow the written chain, without caps; N, C: chain ends. Non-standard residues stand in square brackets, D forms with d. Residues, ends and D or L forms follow the SMILES beside them. *: point of attachment. NMedβ3hAla = C[C@H](CC(=O)[*:2])N(C)[*:1]; NMeF = CN[C@@H](Cc1ccccc1)C(=O)O; NMeI = CC[C@H](C)[C@H](NC)C(=O)O; NMeT = CN[C@H](C(=O)O)[C@@H](C)O; hPhe = N[C@@H](CCc1ccccc1)C(=O)O; NMeβAla = CN(CCC(=O)[*:2])[*:1]; NMeL = CN[C@@H](CC(C)C)C(=O)O; NMeV = CN[C@H](C(=O)O)C(C)C; d(β3hA) = C[C@@H](N)CC(=O)O; NMeAbu = CC[C@H](NC)C(=O)O; NMeA = CN[C@@H](C)C(=O)O; Piperidide = C1CCN(*)CC1; Abu = CC[C@H](N)C(=O)O; Sar = CNCC(=O)O; tBu = CC(C)(C)*
Experiments:
[1] = Metabolic stability test: liver microsomal stability assay; assay type: in vitro ADME, mouse; conditions: for microsomal CLint at 1 µM: male, pH 7.4, presence of NADPH, read-out: Mouse Hepatic Microsome CLh,int NADPH(+)
[2] = Membrane permeability test using Caco-2 cells with preincubation; assay type: in vitro ADME; conditions: Caco-2
Caco-2 cells = assay: as above; assay type: in vitro ADME
[3] = Mouse PK test: plasma concentration after intravenous or oral administration; assay type: in vivo, mice (C57BL/6J); conditions: C57BL/6J
Procedure: We evaluated the plasma concentration changes after intravenous or oral administration of four types of peptides that satisfy these conditions to mice.
To male mice (C57BL/6J, 10 weeks old, purchased from Charles River Laboratories Japan, Inc.: 3 mice per group), the compound was administered intravenously at a dose of 1 mg/kg or orally at a dose of 50 mg/kg, and blood was collected from the jugular vein over time up to 24 hours after administration. The collected blood was dispensed into tubes that were pre-treated with heparin as an anticoagulant. Plasma was separated from the blood by centrifugation, and after deproteinization with acetonitrile, the plasma concentration of the compound was measured with an LC/MS/MS device (XEVO TQ-XS, manufactured by Waters Corporation).

[4] = mouse liver microsomes 0.5 mg protein/mL, compound 1 µM
[5] = mouse liver microsomes 0.5 mg protein/mL, compound 1 µM, absence of NADPH
[6] = preincubation 20 to 24 hours, Apical FaSSIF/HBSS pH 6.0, Basal HBSS 4% BSA pH 7.4, 180 minutes, read-out: Caco2 Papp
[7] = Caco-2 cells, preincubation 20 to 24 hours, apical FaSSIF/HBSS 1% DMSO pH 6.0, basal HBSS 4% BSA pH 7.4, basal sample at 180 minutes
[8] = plasma, male mice, intravenous administration, 1 mg/kg, read-out: AUCinf
[9] = plasma, male mice, intravenous administration, 1 mg/kg, read-out: CL
[10] = plasma, male mice, intravenous administration, 1 mg/kg, read-out: Vss
[11] = plasma, male mice, intravenous administration, 1 mg/kg, read-out: t1/2 (converted)
[12] = plasma, male mice, oral 50 mg/kg vs intravenous 1 mg/kg, bioavailability, read-out: F
[13] = plasma, male mice, oral administration, 50 mg/kg, read-out: AUCinf
[14] = plasma, male mice, oral administration, 50 mg/kg, read-out: Cmax
[15] = plasma, male mice, oral administration, 50 mg/kg, read-out: Tmax
[16] = plasma, male mice, oral administration, 50 mg/kg, read-out: t1/2 (converted)

Mouse Hepatic Microsome CLh,int NADPH(-) [1]: 34.0 µL/min/mg Protein | Papp A→B [2]: 1.28 ×10⁻⁶ cm/s | Caco2 Papp (10^-6 cm/sec) (Caco-2 cells; Caco-2): 1.28 10^-6 cm/sec | AUC(0-inf) ([3]; male, in vivo, iv, 1 mg/kg): 3500 ng·h/mL | Vd ([3]; male, in vivo, iv, 1 mg/kg): 1.6 L/kg | clearance ([3]; male, in vivo, iv, 1 mg/kg): 4.9 mL/min/kg | half-life ([3]; male, in vivo, iv, 1 mg/kg): 5.3 h | bioavailability ([3]; male, in vivo, po): 40% | AUC(0-inf) ([3]; male, in vivo, po, 50 mg/kg): 71000 ng·h/mL | Cmax ([3]; male, in vivo, po, 50 mg/kg): 7000 ng/mL | Tmax ([3]; male, in vivo, po, 50 mg/kg): 1.3 h | half-life ([3]; male, in vivo, po, 50 mg/kg): 9.7 h
SMILES: CC[C@H](C)[C@H]1C(=O)N[C@@H](CC(C)C)C(=O)N(C)CC(=O)N(C)[C@@H](CC(C)C)C(=O)N[C@@H](CC(C)C)C(=O)N(C)[C@H](C)CC(=O)N(C)[C@@H](CC(C)C)C(=O)N(C)CCC(=O)N(C)[C@@H](CC(C)C)C(=O)N[C@@H](COC(C)(C)C)C(=O)N(C)[C@@H](Cc2ccccc2)C(=O)N(C)CCC(=O)N(C)[C@@H](Cc2ccccc2)C(=O)N1C [pd144] (cyclo(L[Sar][NMeL]L[NMedβ3hAla][NMeL][NMeβAla][NMeL]S(tBu)[NMeF][NMeβAla][NMeF][NMeI]))

microsomal CLint at 1 µM [1, 4]: 50.4 µL/min/mg | Mouse Hepatic Microsome CLh,int NADPH(-) [1, 5]: 44.8 µL/min/mg Protein | Papp A→B [2, 6]: 1.16 ×10⁻⁶ cm/s | Caco2 Papp (10^-6 cm/sec) (Caco-2 cells; [7]): 1.16 10^-6 cm/sec | AUC(0-inf) [3, 8]: 1200 ng·h/mL | clearance [3, 9]: 14 mL/min/kg | Vd [3, 10]: 11 L/kg | half-life [3, 11]: 12 h | bioavailability [3, 12]: 33% | AUC(0-inf) [3, 13]: 20000 ng·h/mL | Cmax [3, 14]: 2200 ng/mL | Tmax [3, 15]: 2.7 h | half-life [3, 16]: 6.6 h
SMILES: CC[C@H](C)[C@@H]1NC(=O)[C@H](CC(C)C)N(C)C(=O)C[C@@H](C)NC(=O)[C@H](C(C)C)N(C)C(=O)[C@H](COC(C)(C)C)NC(=O)[C@H](CC)N(C)C(=O)[C@H](Cc2ccccc2)N(C)C(=O)[C@H](CC(C)C)NC(=O)[C@@H]2CCCN2C(=O)[C@H]([C@@H](C)O)N(C)C(=O)[C@H](CC(C)C)N(C)C(=O)[C@H](CC)N(C)C(=O)[C@H](C(C)C)NC(=O)[C@H](CC(C)C)N(C)C1=O [pd057] (cyclo(I[NMeL]V[NMeAbu][NMeL][NMeT]PL[NMeF][NMeAbu]S(tBu)[NMeV][d(β3hA)][NMeL]))

microsomal CLint at 1 µM [1, 4]: 39.5 µL/min/mg | Mouse Hepatic Microsome CLh,int NADPH(-) [1, 5]: 28.4 µL/min/mg Protein | Papp A→B [2, 6]: 1.95 ×10⁻⁶ cm/s | Caco2 Papp (10^-6 cm/sec) (Caco-2 cells; [7]): 1.95 10^-6 cm/sec | AUC(0-inf) [3, 8]: 10000 ng·h/mL | clearance [3, 9]: 1.7 mL/min/kg | Vd [3, 10]: 0.81 L/kg | half-life [3, 11]: 6.4 h | bioavailability [3, 12]: 16% | AUC(0-inf) [3, 13]: 79000 ng·h/mL | Cmax [3, 14]: 7000 ng/mL | Tmax [3, 15]: 1.7 h | half-life [3, 16]: 7.6 h
SMILES: CC[C@@H]1NC(=O)[C@H](CC(C)C)N(C)C(=O)[C@H]([C@@H](C)CC)NC(=O)[C@H](CC(C)C)N(C)C(=O)C[C@@H](C)NC(=O)[C@H](C(C)C)N(C)C(=O)[C@H](CC(C)C)NC(=O)[C@H](CC)N(C)C(=O)[C@H](Cc2ccccc2)N(C)C(=O)[C@@H]2CCCN2C(=O)[C@H](CC(C)C)NC(=O)[C@H]([C@@H](C)O)N(C)C(=O)[C@H](CC(C)C)N(C)C1=O [pd135] (cyclo([Abu][NMeL][NMeT]LP[NMeF][NMeAbu]L[NMeV][d(β3hA)][NMeL]I[NMeL]))

SMILES: CC[C@@H]1NC(=O)[C@H](CC(C)C)N(C)C(=O)[C@H](COC(C)(C)C)NC(=O)[C@H]([C@@H](C)CC)N(C)C(=O)[C@H](CCc2ccccc2)NC(=O)[C@H](Cc2ccccc2)N(C)C(=O)[C@H](C(C)C)NC(=O)[C@H](CC(C)C)N(C)C(=O)[C@H](CC(C)C)NC(=O)CCN(C)C(=O)C[C@@H](C)N(C)C(=O)CN(C)C(=O)[C@H](CC(C)C)N(C)C(=O)[C@@H]2CCCN2C1=O [pd065] (cyclo([Abu]P[NMeL][Sar][NMedβ3hAla][NMeβAla]L[NMeL]V[NMeF][hPhe][NMeI]S(tBu)[NMeL]))
microsomal CLint at 1 µM [1, 4]: 41.7 µL/min/mg | Mouse Hepatic Microsome CLh,int NADPH(-) [1, 5]: 40.2 µL/min/mg Protein | Papp A→B [2, 6]: 0.54 ×10⁻⁶ cm/s | Caco2 Papp (10^-6 cm/sec) (Caco-2 cells; [7]): 0.54 10^-6 cm/sec | AUC(0-inf) ([3]; in vivo, male mice, intravenous administration, 1 mg/kg, read-out: AUCinf): 8700 ng·h/mL | clearance ([3]; in vivo, male mice, intravenous administration, 1 mg/kg, read-out: CL): 1.9 mL/min/kg | Vd ([3]; in vivo, male mice, intravenous administration, 1 mg/kg, read-out: Vss): 0.57 L/kg | half-life ([3]; in vivo, male mice, intravenous administration, 1 mg/kg, read-out: t1/2 (converted)): 5.4 h | bioavailability ([3]; in vivo, male mice, oral 50 mg/kg vs intravenous 1 mg/kg, bioavailability, read-out: F): 26% | AUC(0-inf) ([3]; in vivo, male mice, oral administration, 50 mg/kg, read-out: AUCinf): 110000 ng·h/mL | Cmax ([3]; in vivo, male mice, oral administration, 50 mg/kg, read-out: Cmax): 11000 ng/mL | Tmax ([3]; in vivo, male mice, oral administration, 50 mg/kg, read-out: Tmax): 2.7 h | half-life ([3]; in vivo, male mice, oral administration, 50 mg/kg, read-out: t1/2 (converted)): 5.8 h

microsomal CLint at 1 µM [1, 4]: 28.9 µL/min/mg | Mouse Hepatic Microsome CLh,int NADPH(-) [1, 5]: 28.7 µL/min/mg Protein | Papp A→B [2, 6]: 0.72 ×10⁻⁶ cm/s | Caco2 Papp (10^-6 cm/sec) (Caco-2 cells; [7]): 0.72 10^-6 cm/sec
SMILES: CC(C)C[C@@H]1NC(=O)[C@H](CC(C)C)N(C)C(=O)[C@H](C(C)C)N(C)C(=O)[C@H](CCc2ccccc2)NC(=O)[C@H]([C@@H](C)O)N(C)C(=O)[C@@H](C(C)C)NC(=O)C[C@@H](C(=O)N2CCCCC2)NC(=O)[C@H](C(C)C)N(C)C(=O)[C@H](CC(C)C)NC(=O)[C@H](Cc2ccccc2)N(C)C(=O)[C@@H]2CCCN2C(=O)[C@H](C(C)C)NC(=O)[C@H](CC(C)C)N(C)C(=O)CN(C)C1=O [pd032] ([dV][NMeT][hPhe][NMeV][NMeL]L[Sar][NMeL]VP[NMeF]L[NMeV]D-Piperidide; lactam N-14)

microsomal CLint at 1 µM [1, 4]: 21.4 µL/min/mg | Mouse Hepatic Microsome CLh,int NADPH(-) [1, 5]: 15.6 µL/min/mg Protein | Papp A→B [2, 6]: 0.03 ×10⁻⁶ cm/s | Caco2 Papp (10^-6 cm/sec) (Caco-2 cells; [7]): 0.03 10^-6 cm/sec
SMILES: CC[C@H](C)[C@@H]1NC(=O)[C@H](CC(C)C)N(C)C(=O)CN(C)C(=O)C[C@@H](C(=O)N2CCCCC2)NC(=O)[C@H](C)N(C)C(=O)CNC(=O)[C@H](C(C)C)N(C)C(=O)[C@H](C)N(C)C(=O)[C@H](Cc2ccccc2)N(C)C(=O)[C@H](C(C)C)NC(=O)[C@H](CC(C)C)NC(=O)[C@H](Cc2ccccc2)N(C)C(=O)[C@H]([C@@H](C)O)NC(=O)[C@H](CC(C)C)N(C)C1=O [pd039] ([Sar][NMeL]I[NMeL]T[NMeF]LV[NMeF][NMeA][NMeV]G[NMeA]D-Piperidide; lactam N-14)

microsomal CLint at 1 µM [1, 4]: 55.9 µL/min/mg | Mouse Hepatic Microsome CLh,int NADPH(-) [1, 5]: 30.2 µL/min/mg Protein | Papp A→B [2, 6]: 0.27 ×10⁻⁶ cm/s | Caco2 Papp (10^-6 cm/sec) (Caco-2 cells; [7]): 0.27 10^-6 cm/sec
SMILES: CC[C@H](C)[C@@H]1NC(=O)[C@H](CC(C)C)N(C)C(=O)[C@H](CC(C)C)NC(=O)[C@H](C)N(C)C(=O)[C@H](Cc2ccccc2)N(C)C(=O)[C@@H]2CCCN2C(=O)[C@H](CC(C)C)N(C)C(=O)[C@H](CCc2ccccc2)NC(=O)CCN(C)C(=O)C[C@@H](C)NC(=O)[C@H](CC(C)C)N(C)C(=O)[C@H]([C@@H](C)O)NC(=O)[C@H](C)N(C)C(=O)[C@H](C(C)C)N(C)C1=O [pd056] (cyclo(I[NMeV][NMeA]T[NMeL][d(β3hA)][NMeβAla][hPhe][NMeL]P[NMeF][NMeA]L[NMeL]))

Source: EP4768499A1, “MACROCYCLIC PEPTIDE COMPOUND HAVING CELL MEMBRANE PERMEABILITY AND METABOLIC STABILITY, AND LIBRARY CONTAINING SAME” (Chugai Seiyaku Kabushiki Kaisha, priority 2023, dated 2025)
